Where two headings read alike, the source gives them in different places.
Columns and labels:
[1] = test system: IL-17 production of mouse spleen cells stimulated by rm-IL-23; test: Production of IL-17 induced when mouse spleen cells were stimulated by recombinant mouse interleukin-23 (rm-IL-23); type: cell-based; conditions: inhibition of IL-17 production, DBA/1J mouse spleen cells, rm-IL-23 1 nmol/L, ELISA
Summary of the method: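 Spleen cells from 6-7 week-old male DBA/1J mice, 2×10^5 cells/well in 10% FCS RPMI1640, cultured 72 h at 37° C with compound (1 to 1,000 nmol/L) plus 1 nmol/L rm-IL-23. IL-17 in supernatant by ELISA; viability by WST-8 absorbance at 450 nm; IC50 by linear regression of inhibition rate.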

[2] = target: T1, hERG (Homo sapiens, UniProt Q12809); test: in vitro; conditions: pH 7.4, hERG inhibition rate (%) (1 μM)
T1 sequence (Q12809 whole entry): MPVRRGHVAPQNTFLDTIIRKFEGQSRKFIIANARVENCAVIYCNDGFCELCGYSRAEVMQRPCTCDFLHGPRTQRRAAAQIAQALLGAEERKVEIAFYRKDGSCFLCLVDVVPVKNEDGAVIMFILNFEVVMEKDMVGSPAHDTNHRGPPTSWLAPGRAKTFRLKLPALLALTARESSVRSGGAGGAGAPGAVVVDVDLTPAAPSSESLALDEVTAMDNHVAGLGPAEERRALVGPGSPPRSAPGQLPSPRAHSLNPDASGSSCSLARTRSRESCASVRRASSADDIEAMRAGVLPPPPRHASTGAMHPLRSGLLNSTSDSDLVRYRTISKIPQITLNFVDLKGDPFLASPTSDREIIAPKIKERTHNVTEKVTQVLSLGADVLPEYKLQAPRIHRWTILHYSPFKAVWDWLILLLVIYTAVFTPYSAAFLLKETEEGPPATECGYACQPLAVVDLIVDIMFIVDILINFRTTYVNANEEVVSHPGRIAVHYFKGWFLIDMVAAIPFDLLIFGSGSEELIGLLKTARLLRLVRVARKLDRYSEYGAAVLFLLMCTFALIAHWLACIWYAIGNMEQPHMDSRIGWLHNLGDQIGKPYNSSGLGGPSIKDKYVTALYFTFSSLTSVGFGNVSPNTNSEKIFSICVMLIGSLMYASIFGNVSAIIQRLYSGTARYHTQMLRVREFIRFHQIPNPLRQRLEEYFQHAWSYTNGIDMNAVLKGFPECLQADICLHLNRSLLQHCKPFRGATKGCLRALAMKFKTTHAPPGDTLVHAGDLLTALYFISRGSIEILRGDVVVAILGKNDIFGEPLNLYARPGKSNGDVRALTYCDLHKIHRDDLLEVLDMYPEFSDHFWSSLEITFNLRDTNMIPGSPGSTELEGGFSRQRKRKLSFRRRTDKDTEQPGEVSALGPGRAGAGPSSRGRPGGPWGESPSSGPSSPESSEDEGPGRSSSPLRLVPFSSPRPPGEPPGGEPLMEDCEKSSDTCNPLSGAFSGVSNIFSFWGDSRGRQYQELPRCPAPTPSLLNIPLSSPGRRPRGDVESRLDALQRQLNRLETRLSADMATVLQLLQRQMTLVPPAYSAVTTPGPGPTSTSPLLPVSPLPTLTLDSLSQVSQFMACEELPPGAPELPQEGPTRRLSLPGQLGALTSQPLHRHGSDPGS
Procedure: (§1) Dimethylsulfoxide was used as a vehicle and hERG-expressed HEK 293 cells (Cytomyx) were used as test cells. Test cells were once cultured and subdivided and were stored under frozen condition in liquid nitrogen. In the study, thawed and subcultured cells having less than 30 of the passage number were used. Test cells were cultured in a carbon dioxide incubator BNP-110M (Tabai Espec Corp.) at 37±1° C., and 5.0±0.5% of carbon dioxide concentration. The component of culture medium was MEM (Minimum Essential Medium) supplemented with 10 vol % fetal bovine serum (non-activated), 1 mmol/L sodium pyruvate, 0.1 mmol/L non-essential amino acid, 100 U/mL penicillin with 100 μg/mL streptomycin. To select gene-expressing cells, 400 μg/mL G418 Sulphate (Invitrogen) was added to the culture medium. In the dishes for the measurement, the medium which not contain G418 Sulphate (Invitrogen) was used.
(§2) As to seeding of cells for measurement, subcultured cells which became confluent were treated with 0.25% trypsin-solution containing 1 mmol/L EDTA (Invitrogen) to remove from the plate, and seeded on sterilized collagen-coated cover glass (Iwaki, AGC Techno Glass Co., LTD). The medium was exchanged appropriately, including the day of measurement.
(§3) A perfusion method was applied to the experiment. Test cells were perfused (perfusion speed: approximately 4 mL/min) with an external solution containing specified concentrations of test compounds (component of external solution: 137 mmol/L of sodium chloride, 4 mmol/L of potassium chloride, 10 mmol/L of HEPES, 1.8 mmol/L of calcium chloride, 1 mmol/L of magnesium chloride and 10 mmol/L of glucose; adjusted to pH 7.4±0.1 with sodium hydroxide aqueous solution). […] When effects were observed, the perfusion was continued until the maximum response was observed. […] The data were obtained from one experiment or more and the cells which were incubated in a carbon dioxide incubator after seeding and attached to cover slips were used for the measurement.
(§4) A whole-cell clamping method was applied to the measurement. Test cells were perfused (perfusion speed: approximately 4 mL/min) with an external solution (component of external solution: 137 mmol/L of sodium chloride, 4 mmol/L of potassium chloride, 10 mmol/L of HEPES, 1.8 mmol/L of calcium chloride, 1 mmol/L of magnesium chloride and 10 mmol/L of glucose; adjusted to pH 7.4±0.1 with sodium hydroxide aqueous solution). A glass electrode with a resistance of 2 to 6 MΩ, filled with an internal solution (component: 130 mmol/L of potassium chloride, 1 mmol/L of magnesium chloride, 5 mmol/L of EGTA, 10 mmol/L of HEPES and 5 mmol/L of ATP adjusted to pH 7.2±0.1 with sodium hydroxide aqueous solution) was used. After rupturing cell membrane with glass electrode, the cell membrane voltage was held at −80 mV via a patch clamp software (pCLAMP9 [Axon CNS], Molecular Devices) using patch clamp amplifier (EPC8, HEKA). […] Test cells and the cell-attached cover glass were changed every treatment. Temperature of the fluid in a perfusion fluid tank was 24±2° C.
(§5) The obtained current was recorded on a computer via a patch clamp amplifier using patch clamp software. An evaluation item was a tail peak current.
(§6) A tail peak current was analyzed using analyzing software (Clampfit 9 [Axon CNS], MolecularDevices). Each 2 pulses of before and after perfusion of test compound for each concentration was analyzed, and a peak values of the tail current on the pulses were determined. The inhibition ratio was determined according to the following equation:

[3] = target: T2, hERG current in hERG-expressed HEK 293 cells (Homo sapiens, UniProt Q12809); test: Effects on hERG current (whole-cell clamping); conditions: 1 μM; tail peak current; hERG-expressed HEK 293 cells
T2 sequence (Q12809 whole entry): as above
Procedure: as §1, §2, §3, §4, §5, §6

[4] = target: T2, hERG current in hERG-expressed HEK 293 cells
Procedure: as §1, §2, §3, §4, §5, §6

[5] = test system: Type II collagen-induced arthritis in DBA/1J mice; test: Type II collagen-induced arthritis in DBA/1J mice; type: in vivo, mouse; conditions: dose showing significant inhibitory effect on arthritis, oral, once a day for three weeks from booster immunization
Procedure: Effect on Type II Collagen-Induced Arthritis in DBA/1J Mice
An emulsion was prepared by mixing bovine II collagen (100-200 μg purchased from collagen Gijyutsu Kenshuukai) and Freund's complete adjuvant (Sigma Aldrich) containing killed Mycobacterium tuberculosis H37Ra. Arthritis was induced by immunization through subcutaneous administration of the emulsion to the tail of 6-7 week-old male DBA/1J mouse (Charles River Japan, Inc.), followed by booster immunization three weeks later by administration of an emulsion prepared by mixing bovine II collagen with Freund's incomplete adjuvant (Sigma-Aldrich). Test compound was suspended or dissolved in 0.5% carboxymethylcellulose (Sigma-Aldrich) and repeatedly administered orally once a day at a dose of 0.1 to 10 mg/kg body weight using an oralsonde for three weeks from the day of booster immunization. In this model, the symptom of arthritis of the limbs was each evaluated according to the following evaluation criteria of 0 to 4 scores: 0, No change; 1, edema in only one joint; 2, edema in two or more joints, or light edema of the entire limb; 3, severe edema of the entire limb; 4, severe edema of the entire limb and ankylosis and immovability of joint. The score of arthritis of each mouse was expressed as the total of the scores of the limbs (Maximum: 16 points). On the next day of the last administration, soft X-ray photograph of the limbs was taken with soft X-ray equipment (Omic), and the level of joint destruction was evaluated by observation under a microscope. In each finger of the limbs the score of joint destruction was judged as 0 when no joint destruction was found, and as 1 when one or more destruction was found, and the score of joint destruction of a mouse was expressed as the total of scores for each finger of limb (Maximum: 20). The arthritis score and joint destruction score were expressed as the average value and standard error for each group (n=6-8). Only a vehicle was administered in a control group, and statistical analysis was performed by Dunnett's multiple comparison test, in which the case was judged as significant when the p value was less than 0.05.

[6] = target: T1, hERG; test: Effects on hERG current (whole-cell clamping); conditions: human, HEK 293 cells that express hERG, pH 7.4, hERG inhibition rate (%) (1 μM), 1 μM; tail peak current; hERG-expressed HEK 293 cells
Procedure: as §1, §2, §3, §4, §5, §6

| Structure (SMILES) | IC50 ([1]; 72 hours) [nM] | inhibition at 1 µM [2] [%] | other results |
| --- | --- | --- | --- |
| Cc1c(C(=O)Nc2ccc(C3(C#N)CCN([C@H]4CCO[C@H]4C)CC3)nc2)cnn1-c1ccc(C(F)(F)F)cn1 (relative stereo) [Example D8, cis-N-{6-[4-Cyano-1-(2-methyltetrahydrofuran-3-yl)piperidin-4-yl]pyridin-3-yl}-5-methyl-1-[5-(trifluoromethyl)pyridin-2-yl]-1H-pyrazole-4-carboxamide] | 114 | 15.8 | – |
| Cc1c(C(=O)Nc2ccc(C3(C#N)CCN([C@H]4CCO[C@H]4C)CC3)nc2)cnn1-c1ccc(C2CC2)cn1 (relative stereo) [Example D10, cis-N-{6-[4-Cyano-1-(2-methyltetrahydrofuran-3-yl)piperidin-4-yl]pyridin-3-yl}-1-(5-cyclopropylpyridin-2-yl)-5-methyl-1H-pyrazole-4-carboxamide] | 120 | 6.7 | – |
| Cc1c(C(=O)Nc2ccc(C3(C#N)CCN([C@H]4CCO[C@H]4C)CC3)nc2)cnn1-c1ccc(C(F)(F)F)cc1 (relative stereo) [Example D11, cis-N-{6-[4-Cyano-1-(2-methyltetrahydrofuran-3-yl)piperidin-4-yl]pyridin-3-yl}-5-methyl-1-[4-(trifluoromethyl)phenyl]-1H-pyrazole-4-carboxamide] | 53.4 | 21 | – |
| Cc1ccc(-n2ncc(C(=O)Nc3ccc(C4(C#N)CCC(N5CCOCC5)CC4)nc3)c2C)cc1.Cl (stereo not shown) [Example D2, N-{6-[r-1-Cyano-c-4-(morpholin-4-yl)cyclohexyl]pyridin-3-yl}-5-methyl-1-(4-methylphenyl)-1H-pyrazole-4-carboxamide hydrochloride] | 193 | – | hERG inhibition rate (%) (1 μM) [3]: 43.4% |
| COCOC1CCC(C#N)(c2ccc(NC(=O)c3cnn(-c4ccc(C)cc4)c3C)cn2)CC1 (stereo not shown) [Example D3, N-{6-[r-1-Cyano-c-4-(methoxymethoxy)cyclohexyl]pyridin-3-yl}-5-methyl-1-(4-methylphenyl)-1H-pyrazole-4-carboxamide] | 182 | – | hERG inhibition rate (%) (1 μM) [4]: 7.2% |
| Cc1c(C(=O)Nc2ccc(C3(C#N)CCN(CC(C)(C)O)CC3)nc2)cnn1-c1ccc(C(F)(F)F)cn1 [Example D9, N-{6-[4-Cyano-1-(2-hydroxy-2-methylpropyl)piperidin-4-yl]pyridin-3-yl}-5-methyl-1-[5-(trifluoromethyl)pyridin-2-yl]-1H-pyrazole-4-carboxamide] | 76.7 | 42.1 | – |
| Cc1c(C(=O)Nc2ccc(C3(C#N)CCN(CC(C)(C)O)CC3)nc2)cnn1-c1ccc(C2CC2)cn1 [Example D12, N-{6-[4-Cyano-1-(2-hydroxy-2-methylpropyl)piperidin-4-yl]pyridin-3-yl}-1-(5-cyclopropylpyridin-2-yl)-5-methyl-1H-pyrazole-4-carboxamide] | 117 | 29.2 | – |
| Cc1c(C(=O)Nc2ccc(C3(C#N)CCN(CC(C)(C)O)CC3)nc2)cnn1-c1ccc(Cl)cc1 [Example D116] | 129 | 41.2 | – |
| Cc1c(C(=O)Nc2ccc(C3(C#N)CCN(CC(C)(C)O)CC3)nc2)cnn1-c1ccc(C(F)(F)F)cc1 [Example D117] | 57 | 35.6 | – |
| Cc1cc(NC(=O)c2cnn(-c3ccc(C(F)(F)F)cn3)c2C)cnc1C1=CC[C@@H](N2CCOCC2)CC1 [Example D303] | 48 | – | hERG inhibition rate (%) (1 μM) [3]: 22.7% |
| Cc1c(C(=O)Nc2ccc(C3(C#N)CCN(C4CCOCC4)CC3)nc2)cnn1-c1ccc(C(F)(F)F)cc1 [Example E7] | 349 | 21.1 | – |
| Cc1c(C(=O)Nc2ccc([C@]3(C#N)CC[C@@H](O)CC3)nc2)cnn1-c1ccc(C(F)(F)F)cc1 [Example G6] | – | – | Effective Dose [5]: 10 mg/kg; inhibition at 1 µM [6]: 26%; IC50 ([1]; Mus musculus, 72 h): 73.9 nM |
| Cc1c(C(=O)Nc2ccc([C@]3(C#N)CC[C@@H](O)CC3)nc2)cnn1-c1ccc(F)cc1F [Example G7] | – | – | minimal effective dose ([5]; Mus musculus, 504 h): 0.3 mg/kg; inhibition at 1 µM [6]: 5.2%; IC50 ([1]; Mus musculus, 72 h): 198 nM |

Source: US9150555B2, “Amide derivative and use thereof” (Mitsubishi Tanabe Pharma Corporation, priority 2010, dated 2015)
